The results in this text go back to patent US11795152B2, “Crystal form of tafamidis and preparation method therefor and use thereof” (CRYSTAL PHARMACEUTICAL (SUZHOU) CO., LTD., priority 2019, dated 2023).

Common to all, as to assay type: physicochemical
Data set [1] can be described thus: Stability of crystalline form of Compound I in WO2019175263 in drug product formulation process. As to conditions: formulation of Table 34, stirring at room temperature. The source says:
The crystalline form of Compound I in WO2019175263 was made into drug products according to the formulation and preparation process in Table 34 and Table 35. The XRPD patterns were collected before and after the formulation process. […] Form change occurred during stirring at room temperature.

The nature of data set [2]: Stability of drug substance on storage (XRPD, HPLC purity). As to conditions: for chemical purity during storage: drug substance. The source says: Crystalline form and chemical impurity were checked by XRPD and HPLC, respectively.
Crystalline form and purity were checked by XRPD and HPLC, respectively.

Data set [3] in a line: Compressibility (manual tablet press, tensile strength). As to conditions: 80 mg, φ6 mm round tooling, 10 KN. As to the method:
An ENERPAC manual tablet press was used for tableting. […] Diameter (D) and thickness (L) were tested with a caliper. Hardness (H) was tested with an intelligent tablet hardness tester. Tensile strength of the powder was calculated with the following formula: T=2H/πDL*9.8. Under a certain force, the greater the tensile strength, the better the compressibility.
Diameter (D) and thickness (L) were tested with a caliper. Hardness (H) was tested with an intelligent tablet hardness tester. Tensile strength of the powder was calculated with the following formula: T=2H/πDL*9.8. Under a certain force, the greater the tensile strength, the better the compressibility.

Data set [4] is described as follows: Hygroscopicity by dynamic vapor sorption (DVS). As to conditions: 80% RH, 25° C., DVS. How it is done: Dynamic Vapor Sorption (DVS) is measured via a SMS (Surface Measurement Systems Ltd.) intrinsic DVS instrument. Its control software is DVS-Intrinsic control software. Typical parameters for DVS tests are as follows:
Gas and flow rate: N2, 200 mL/min
RH range: 0% RH to 95% RH
The weight gains at each relative humidity were recorded in a cycle of 0-95%-0 RH. The XRPD patterns were collected before and after the DVS test and depicted in FIG. 11.
Description and definition of hygroscopicity (general notice 9103 drug hygroscopicity test guidelines in 2015 edition of Chinese Pharmacopoeia, test at 25° C.+/−1° C., 80% RH. The definition of hygroscopicity in the 9th European Pharmacopoeia 5.11 is in consistent with the Chinese Pharmacopoeia.). • deliquescent: sufficient water is absorbed to form a solution. • very hygroscopic: increase in mass is equal to or greater than 15 percent. • hygroscopic: increase in mass is less than 15 percent and equal to or greater than 2 percent. • slightly hygroscopic: increase in mass is less than 2 percent and equal to or greater than 0.2 percent. • non hygroscopic or almost non hygroscopic: Increase in mass is less than 0.2%.
The weight gains at each relative humidity were recorded in a cycle of 0-95%-0RH. The XRPD patterns were collected before and after the DVS test and depicted in FIG. 22. […] Form CSVI is slightly hygroscopic.
The weight gains at each relative humidity were recorded in a cycle of 0-95%-0RH. The XRPD patterns were collected before and after the DVS test and depicted in FIG. 31.

A short description of data set [5]: Dissolution profile of tablets in pH6.8 PBS+1% Tween 80. As to conditions: tablet 61 mg, paddle 75 rpm, 37° C. As to the method:
The cumulative dissolution was measured at different time in pH6.8 PBS+1% Tween 80 and pH6.8 PBS+3% Tween 80. The dissolution results are presented in Table 24 (FIG. 23) and Table 25 (FIG. 24).
The cumulative dissolution was measured at different time in pH6.8 PBS+1% Tween 80.

Data set [6] is described as follows: Adhesiveness (material sticking to the punch). As to conditions: 30 mg, φ8 mm round tooling, 10 KN held for 30 s. How it is done: The punch was weighed and amount of material sticking to the punch was calculated. The compression was repeated twice and the cumulative amount, maximum amount and average amount of material sticking to the punch during the compression were recorded.

Data set [7] can be described thus: Stability of Form CSVII drug product on storage. The note with it: 30° C./60% RH.
Setting [8] is: 40° C./75% RH, Sealed, 3 months.
[9] abbreviates: 60° C./75% RH, Sealed, 2 months.

Consider `O=C(O)c1ccc2nc(-c3cc(Cl)cc(Cl)c3)oc2c1`, for which the “stability in the formulation process (XRPD before and after)” value in data set [1] is on record as “unstable in the formulation process”.

For the compound `O=C(O)CCCCC(=O)O.O=C(O)c1ccc2nc(-c3cc(Cl)cc(Cl)c3)oc2c1.O=C(O)c1ccc2nc(-c3cc(Cl)cc(Cl)c3)oc2c1` [Form CSVII], the Purity in data set [2] (25° C./60% RH, Open, 3 months) is recorded as 99.92%; in data set [2] (40° C./75% RH, Open, 3 months) it was 99.92%; in data set [2] (setting [8]), 99.92%; in data set [2] (setting [9]) it was 99.93%; in data set [2] (Initial), 99.93%. Moreover, the “Solid Form” value in data set [2] (25° C./60% RH, Open, 3 months) is “Form CSVII”; in data set [2] (40° C./75% RH, Open, 3 months), “Form CSVII”; in data set [2] (setting [8]), “Form CSVII”; in data set [2] (setting [9]), “Form CSVII”; in data set [2] (Initial) it was “Form CSVII”. Besides, the “chemical purity during storage” value in data set [2] (25° C./60% RH) is listed as “above 99.9%”; in data set [2] (40° C./75% RH and 60° C./75% RH), “above 99.9%”. In data set [3] (24 hours recovery), this compound had a Hardness of 7.45 kgf. Further, in data set [3] (T=2H/πDL*9.8), the Tensile strength was determined as 4.02 MPa. This compound also showed a Weight gain in data set [4] of 0.04%. Besides, the “Cumulative drug release in pH 6.8 PBS + 1% Tween 80 (%)” value is listed as 0.0% in data set [5] (0 min); 9.3% in data set [5] (5 min); 15.2% in data set [5] (10 min); 19.7% in data set [5] (15 min); 23.5% in data set [5] (20 min); 29.8% in data set [5] (30 min). The “Cumulative drug release in pH 6.8 PBS + 1% Tween 80 (%)” value in data set [5] (45 min) is listed as 37.4%; in data set [5] (60 min), 43.7%; in data set [5] (90 min) it was 52.8%; in data set [5] (120 min) it was 60.1%; in data set [5] (150 min) it was 68.3%. For the same compound, the “Average amount (mg) of material sticking to the punch” value in data set [6] is on record as 0.200 mg. Further, the “time for which crystalline state of drug product doesn't change” value in data set [7] is “at least three months”.
